Each molecule was assayed against T1, human β-secretase (Homo sapiens, UniProt P56817) (assay: TR-FRET assay (β-secretase enzyme, sBACE-Fc)). Settings: not given.
T1 construct: The soluble part of the human β-secretase (AA 1-AA 460) was cloned; made in house
Format: biochemical
Procedure: The enzyme used in the IGEN Cleavage-, Fluorescent-, TR-FRET- and BiaCore assays is described as follows:
The soluble part of the human β-secretase (AA 1-AA 460) was cloned into the ASP2-F10-1-IRES-GFP-neoK mammalian expression vector. The gene was fused to the Fc domain of IgG1 (affinity tag) and stably cloned into HEK 293 cells. Purified sBACE-Fc is stored in Tris buffer, pH 9.2 and has a purity of 95%.
Enzyme was diluted to 6 μg/mL and the substrate (Europium)[…](Qsy7) to 200 nM in reaction buffer (NaAcetate, chaps, triton x-100, EDTA pH 4.5). Compounds were diluted to the desired concentration in dimethyl sulfoxide (final dimethyl sulfoxide concentration in assay is 5%). […] Enzyme (9 μL) and 1 μL of compound in dimethyl sulfoxide was added to the plate, mixed and pre-incubated for 10 min. Substrate (10 μL) was added and the reaction proceeded in the dark for 15 min at RT. The reaction was stopped with the addition of 7 μL NaAcetate, pH 9. […] The dimethyl sulfoxide control defined the 100% activity level and 0% activity was defined by exclusion of the enzyme (using reaction buffer instead).

T1 sequence (P56817 22-460): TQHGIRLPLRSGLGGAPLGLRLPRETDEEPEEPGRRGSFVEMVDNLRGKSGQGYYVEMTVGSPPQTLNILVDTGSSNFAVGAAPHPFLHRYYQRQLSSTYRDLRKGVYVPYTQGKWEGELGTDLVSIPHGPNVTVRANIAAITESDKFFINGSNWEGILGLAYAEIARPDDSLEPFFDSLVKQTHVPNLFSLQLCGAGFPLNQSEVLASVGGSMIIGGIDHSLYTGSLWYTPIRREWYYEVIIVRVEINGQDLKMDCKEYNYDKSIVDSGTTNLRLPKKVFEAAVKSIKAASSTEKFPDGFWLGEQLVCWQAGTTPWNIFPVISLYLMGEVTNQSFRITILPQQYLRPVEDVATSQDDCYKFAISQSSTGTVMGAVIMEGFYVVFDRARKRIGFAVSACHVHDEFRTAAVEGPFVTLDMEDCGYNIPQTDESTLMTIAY

SMILES	IC50 [nM]
COc1ccc(C2(c3cccc(-c4cc(OC)cc(OS(C)(=O)=O)c4)c3)N=C(N)N3CCN=C32)cc1 (centres unmarked) [Example 73, 3′-[5-Amino-7-(4-methoxyphenyl)-2,7-dihydro-3H-imidazo[1,5-a]imidazol-7-yl]-5-methoxybiphenyl-3-yl methanesulfonate acetate]	190

Same assay, conditions: read-out: IC50 in TR-FRET assay

IC50 [nM]	SMILES
390	NC1=NC(c2ccc(OS(=O)(=O)C3CC3)cc2)(c2cccc(-c3cccc(Cl)c3F)c2)C2=NCCCN12 (centres unmarked) [Example 71, 4-[6-Amino-8-(3′-chloro-2′-fluorobiphenyl-3-yl)-2,3,4,8-tetrahydroimidazo[1,5-a]pyrimidin-8-yl]phenyl cyclopropane sulfonate 0.75 acetate]
644	NC1=NC(c2ccc(OS(=O)(=O)C3CC3)cc2)(c2cccc(-c3cc(Cl)ccc3Cl)c2)C2=NCCCN12 (centres unmarked) [Example 72, 4-[6-Amino-8-(2′,5′-dichlorobiphenyl-3-yl)-2,3,4,8-tetrahydroimidazo[1,5-a]pyrimidin-8-yl]phenyl cyclopropane sulfonate 0.5 acetate]
449	COc1cccc(-c2cccc(C3(c4ccc(OS(C)(=O)=O)cc4)N=C(N)N4CCN=C43)c2)c1 (centres unmarked) [Example 74, 4-[5-Amino-7-(3′-methoxybiphenyl-3-yl)-2,7-dihydro-3H-imidazo[1,5-a]imidazol-7-yl]phenyl methanesulfonate 0.25 acetate]
226	CS(=O)(=O)Oc1ccc(C2(c3cccc(-c4cccc(Cl)c4)c3)N=C(N)N3CCN=C32)cc1 (centres unmarked) [Example 76, 4-[5-Amino-7-(3′-chlorobiphenyl-3-yl)-2,7-dihydro-3H-imidazo[1,5-a]imidazol-7-yl]phenyl methanesulfonate 0.5 acetate]
1530	CS(=O)(=O)Oc1ccc(C2(c3cccc(-c4cccnc4)c3)N=C(N)N3CCN=C32)cc1 (centres unmarked) [Example 77, 4-[5-Amino-7-(3-pyridin-3-ylphenyl)-2,7-dihydro-3H-imidazo[1,5-a]imidazol-7-yl]phenyl methanesulfonate 0.5 acetate]
844	CS(=O)(=O)Oc1ccc(C2(c3cccc(-c4cccnc4F)c3)N=C(N)N3CCN=C32)cc1 (centres unmarked) [Example 78, 4-{5-Amino-7-[3-(2-fluoropyridin-3-yl)phenyl]-2,7-dihydro-3H-imidazo[1,5-a]imidazol-7-yl}phenyl methanesulfonate 0.5 acetate]
436	CS(=O)(=O)Oc1ccc(C2(c3cccc(-c4cc(Cl)cnc4F)c3)N=C(N)N3CCN=C32)cc1 (centres unmarked) [Example 79, 4-{5-Amino-7-[3-(5-chloro-2-fluoropyridin-3-yl)phenyl]-2,7-dihydro-3H-imidazo[1,5-a]imidazol-7-yl}phenyl methanesulfonate 0.5 acetate]
1380	COc1cccc(-c2cccc(C3(c4ccc(OS(=O)(=O)C(C)C)cc4)N=C(N)N4CCN=C43)c2)c1 (centres unmarked) [Example 80, 4-[5-Amino-7-(3′-methoxybiphenyl-3-yl)-2,7-dihydro-3H-imidazo[1,5-a]imidazol-7-yl]phenyl propane-2-sulfonate 0.5 acetate]
417	CC(C)S(=O)(=O)Oc1ccc(C2(c3cccc(-c4cc(Cl)cc(Cl)c4)c3)N=C(N)N3CCN=C32)cc1 (centres unmarked) [Example 81, 4-[5-Amino-7-(3′,5′-dichlorobiphenyl-3-yl)-2,7-dihydro-3H-imidazo[1,5-a]imidazol-7-yl]phenyl propane-2-sulfonate 0.5 acetate]
484	CC(C)S(=O)(=O)Oc1ccc(C2(c3cccc(-c4cccc(Cl)c4)c3)N=C(N)N3CCN=C32)cc1 (centres unmarked) [Example 82, 4-[5-Amino-7-(3′-chlorobiphenyl-3-yl)-2,7-dihydro-3H-imidazo[1,5-a]imidazol-7-yl]phenyl propane-2-sulfonate 0.5 acetate]
2510	CC(C)S(=O)(=O)Oc1ccc(C2(c3cccc(-c4cccnc4)c3)N=C(N)N3CCN=C32)cc1 (centres unmarked) [Example 83, 4-[5-Amino-7-(3-pyridin-3-ylphenyl)-2,7-dihydro-3H-imidazo[1,5-a]imidazol-7-yl]phenyl propane-2-sulfonate 0.75 acetate]
2510	CC(C)S(=O)(=O)Oc1ccc(C2(c3cccc(-c4cccnc4F)c3)N=C(N)N3CCN=C32)cc1 (centres unmarked) [Example 84, 4-{5-Amino-7-[3-(2-fluoropyridin-3-yl)phenyl]-2,7-dihydro-3H-imidazo[1,5-a]imidazol-7-yl}phenyl propane-2-sulfonate 0.75 acetate]
1030	COc1cncc(-c2cccc(C3(c4ccc(OS(=O)(=O)C(C)C)cc4)N=C(N)N4CCN=C43)c2)c1 (centres unmarked) [Example 85, 4-{5-Amino-7-[3-(5-methoxypyridin-3-yl)phenyl]-2,7-dihydro-3H-imidazo[1,5-a]imidazol-7-yl}phenyl propane-2-sulfonate 0.5 acetate]
113	NC1=NC(c2ccc(OS(=O)(=O)C(F)(F)F)cc2)(c2cccc(-c3cccc(Cl)c3)c2)C2=NCCN12 (centres unmarked) [Example 90, 4-[5-Amino-7-(3′-chlorobiphenyl-3-yl)-2,7-dihydro-3H-imidazo[1,5-a]imidazol-7-yl]phenyl trifluoromethanesulfonate 0.75 acetate]
727	NC1=NC(c2ccccc2)(c2cccc(Br)c2)C2=NCCCN12 (centres unmarked) [Example 98, 8-(3-Bromophenyl)-8-phenyl-2,3,4,8-tetrahydroimidazo[1,5-a]pyrimidin-6-amine]
1200	NC1=NC(c2cccc(Br)c2)(c2cccc(OS(=O)(=O)C(F)(F)F)c2)C2=NCCCN12 (centres unmarked) [Example 113, 3-[6-Amino-8-(3-bromophenyl)-2,3,4,8-tetrahydroimidazo[1,5-a]pyrimidin-8-yl]phenyl trifluoromethanesulfonate]
246	CS(=O)(=O)Oc1cccc(C2(c3cccc(-c4cc(C(F)(F)F)cc(C(F)(F)F)c4)c3)N=C(N)N3CCCN=C32)c1 (centres unmarked) [Example 114, 3-{6-Amino-8-[3′,5′-bis(trifluoromethyl)biphenyl-3-yl]-2,3,4,8-tetrahydroimidazo[1,5-a]pyrimidin-8-yl}phenyl methanesulfonate]
106	NC1=NC(c2cccc(OS(=O)(=O)C(F)(F)F)c2)(c2cccc(-c3cccc(Cl)c3)c2)C2=NCCCN12 (centres unmarked) [Example 115, 3-[6-Amino-8-(3′-chlorobiphenyl-3-yl)-2,3,4,8-tetrahydroimidazo[1,5-a]pyrimidin-8-yl]phenyl trifluoromethanesulfonate]
285	CS(=O)(=O)Oc1cccc(C2(c3cccc(-c4cc(Cl)cc(Cl)c4)c3)N=C(N)N3CCCN=C32)c1 (centres unmarked) [Example 116, 3-[6-Amino-8-(3′,5′-dichlorobiphenyl-3-yl)-2,3,4,8-tetrahydroimidazo[1,5-a]pyrimidin-8-yl]phenyl methanesulfonate]
252	CS(=O)(=O)Oc1cccc(C2(c3cccc(-c4cccc(Cl)c4)c3)N=C(N)N3CCCN=C32)c1 (centres unmarked) [Example 117, 3-[6-Amino-8-(3′-chlorobiphenyl-3-yl)-2,3,4,8-tetrahydroimidazo[1,5-a]pyrimidin-8-yl]phenyl methanesulfonate]
645	COc1cccc(-c2cccc(C3(c4cccc(OS(C)(=O)=O)c4)N=C(N)N4CCCN=C43)c2)c1 (centres unmarked) [Example 118, 3-[6-Amino-8-(3′-methoxybiphenyl-3-yl)-2,3,4,8-tetrahydroimidazo[1,5-a]pyrimidin-8-yl]phenyl methanesulfonate]
754	CS(=O)(=O)Oc1cccc(C2(c3cccc(-c4cccnc4)c3)N=C(N)N3CCCN=C32)c1 (centres unmarked) [Example 119, 3-[6-Amino-8-(3-pyridin-3-ylphenyl)-2,3,4,8-tetrahydroimidazo[1,5-a]pyrimidin-8-yl]phenyl methanesulfonate]
